Results: US10294269B2, “Dipeptidyl ketoamide compounds and their use for the treatment and/or prevention of fat accumulation” (LANDSTEINER GENMED, S.L., priority 2014, dated 2019)

What follows are molecules tested on 3T3-L1 pre-adipocyte cell line (assay: Mouse 3T3-L1 pre-adipocyte cells differentiation assay (Nile Red lipid fluorescence)). Settings: % of adipogenesis inhibition; compound at 25 μM in differentiation medium (2 days) and insulin medium (2 days); 3T3-L1 cells.
Assay type: cell-based
Experimental: Mouse 3T3-L1 Pre-Adipocyte Cells Differentiation Assay
Cell Culture and Treatment
Mouse (Mus musculus) 3T3-L1 pre-adipocyte cell line was purchased at ATCC.
Induction of adipocyte differentiation was performed according to Choi K C et al “The role of ghrelin and growth hormone secretagogues receptor on rat adipogenesis” Endocrinol 144: 754-759, 2003 with some modifications.
Briefly, 3T3-L1 pre-adipocytes were seeded in 24 well culture plates at a density of 3×10^4 cells/well in growth medium (DMEM containing 4.5 g/L glucose, 1 mM sodium pyruvate, 2 mM L-glutamine, 100 μg/mL streptomycin/penicilline, 25 mM HEPES and 10% calf serum (heat inactivated)). The resulting solution is used as a blank in the measure of fluorescence described below.
Cells were incubated at 37° C., 95% humidity and 10% CO2. Two days after reaching confluence (ninth day) growth medium was changed to differentiation medium (DMEM containing 4.5 g/L glucose, 2 mM L-glutamine, 100 μg/mL streptomycin/penicilline, 25 mM HEPES, 10% FBS (heat inactivated), 1 mM sodium pyruvate, 0.5 mM 3-isobutyl-1-methylxanthine, 0.25 μM dexamethasone, and 5 μg/mL insulin). After 48 h, the medium was replaced by insulin medium (DMEM containing 4.5 g/L glucose, 1 mM sodium pyruvate, 2 mM L-glutamine, 100 μg/mL streptomycin/penicillin, 25 mM HEPES, 10% FBS (inactivated) and 5 μg/mL insulin) for another 48 hours, and then incubated in 10% FBS/DMEM (same as insulin medium without insulin) for 4 days up to their complete differentiation.
The compounds to be tested were added at the 25 μM concentration to the differentiation medium (2 days) and to the insulin medium (2 days).
After incubation, the intracellular stored lipids were quantified by measuring the fluorescence after staining the lipids with the fluorescent dye Nile Red (9-diethylamino-5-benzo[α]phenoxazinone).
To carry out said lipid measurement, cells were lysed in hypotonic buffer (1 mM Tris-HCl pH=7.5) containing 2 μg/ml of Nile Red (9-diethylamino-5-benzo[t]phenoxazinone) for 15 min at 37° C.
Lysed cells were homogenized and TAG content was determined by monitoring Nile Red fluorescence in a laser spectral fluorometer. Excitation 522 nm; Emission 574 nm.
For each compound to be tested the following fluorescence measures were recorded: • FC: Fluorescence of a sample of lysed cells incubated in the presence of the compound in both the differentiation medium and in the insulin medium. • FB: Fluorescence of a blank sample of sample of pre-adipocytes in growth medium. • FNC: Fluorescence of a sample of lysed cells incubated with the differentiation medium and insulin medium not comprising any additional compound.
The inhibition of adipogenesis in the presence of the tested compounds is calculated from the following equation: % of adipogenesis inhibition=100−[100×((FC−FB)/(FNC−FB))]
% of adipogenesis inhibition (reflecting the activity against 3T3-L1 cell differentiation into adipocytes) was determined for each compound, and the effect at the […] has been chosen as the most representative value as to be shown in the structure-activity table.

| Molecule | Adipogenesis inhibition score |
| --- | --- |
| N-[(1S)-1-(1-benzyl-2-tert-butylcarbamoyl-2-oxo-ethylcarbamoyl)-3-methyl-butyl]-benzamide [Example 52] | ++ (Inhibition between >15% and 30%) |

Same assay, conditions: Mus musculus, 48 h; % of adipogenesis inhibition; compound at 25 μM in differentiation medium (2 days) and insulin medium (2 days); 3T3-L1 cells; read-out: Adipogenesis inhibition score

| Molecule | inhibition at 25 µM [%] |
| --- | --- |
| CCNC(=O)C(=O)C(Cc1ccccc1)NC(=O)[C@H](CC(C)C)NC(=O)c1ccccc1 (stereo partly drawn) [Example 1, N-((2S)-1-((4-(ethylamino)-3,4-dioxo-1-phenylbutan-2-yl)amino)-4-methyl-1-oxopentan-2-yl)benzamide] | 15 to 30 |
| CCNC(=O)C(=O)C(Cc1ccccc1)NC(=O)[C@H](CC(C)C)NC(=O)c1ccccn1 (stereo partly drawn) [Example 4, N-((2S)-1-((4-(ethylamino)-3,4-dioxo-1-phenylbutan-2-yl)amino)-4-methyl-1-oxopentan-2-yl)picolinamide] | 1 to 15 |
| CCNC(=O)C(=O)C(Cc1ccccc1)NC(=O)[C@H](CC(C)C)NC(=O)c1cncnc1 (stereo partly drawn) [Example 6, N-((2S)-1-((4-(ethylamino)-3,4-dioxo-1-phenylbutan-2-yl)amino)-4-methyl-1-oxopentan-2-yl)pyrimidine-5-carboxamide] | 15 to 30 |
| COc1cccc(C(=O)N[C@@H](CC(C)C)C(=O)NC(Cc2ccccc2)C(=O)C(=O)NC(C)(C)C)c1 (stereo partly drawn) [Example 7, N-((2S)-1-((4-(tert-butylamino)-3,4-dioxo-1-phenylbutan-2-yl)amino)-4-methyl-1-oxopentan-2-yl)-3-methoxybenzamide] | 15 to 30 |
| CC(C)C[C@H](NC(=O)c1cncnc1)C(=O)NC(Cc1ccccc1)C(=O)C(=O)NC(C)(C)C (stereo partly drawn) [Example 8, N-((2S)-1-((4-(tert-butylamino)-3,4-dioxo-1-phenylbutan-2-yl)amino)-4-methyl-1-oxopentan-2-yl)pyrimidine-5-carboxamide] | 1 to 15 |
| CC(C)C[C@H](NC(=O)c1cccc2cnccc12)C(=O)NC(Cc1ccccc1)C(=O)C(=O)NC(C)(C)C (stereo partly drawn) [Example 11, N-((2S)-1-((4-(tert-butylamino)-3,4-dioxo-1-phenylbutan-2-yl)amino)-4-methyl-1-oxopentan-2-yl)isoquinoline-5-carboxamide] | 30 to 80 |
| CC(C)C[C@H](NC(=O)c1cnccn1)C(=O)NC(Cc1ccccc1)C(=O)C(=O)NC(C)(C)C (stereo partly drawn) [Example 15, N-((2S)-1-((4-(tert-butylamino)-3,4-dioxo-1-phenylbutan-2-yl)amino)-4-methyl-1-oxopentan-2-yl)pyrazine-2-carboxamide] | 1 to 15 |
| CC(C)C[C@H](NC(=O)c1ccccc1)C(=O)NC(Cc1ccccc1)C(=O)C(=O)NC(C)(C)C (stereo partly drawn) [Example 18, N-((2S)-1-((4-(tert-butylamino)-3,4-dioxo-1-phenylbutan-2-yl)amino)-4-methyl-1-oxopentan-2-yl)benzamide] | 15 to 30 |
| CC(C)C[C@H](NC(=O)c1ccccc1)C(=O)NC(Cc1ccccc1)C(=O)C(=O)NC1CC1 (stereo partly drawn) [Example 20, N-((2S)-1-((4-(cyclopropylamino)-3,4-dioxo-1-phenylbutan-2-yl)amino)-4-methyl-1-oxopentan-2-yl)benzamide] | 30 to 80 |
| CC(C)C[C@H](NC(=O)c1cccnc1)C(=O)NC(Cc1ccccc1)C(=O)C(=O)NC(C)(C)C (stereo partly drawn) [Example 21, N-((2S)-1-((4-(tert-butylamino)-3,4-dioxo-1-phenylbutan-2-yl)amino)-4-methyl-1-oxopentan-2-yl)nicotinamide] | 1 to 15 |
| Cc1ccc(C(=O)N[C@@H](CC(C)C)C(=O)NC(Cc2ccccc2)C(=O)C(=O)NC(C)(C)C)cn1 (stereo partly drawn) [Example 25, N-((2S)-1-((4-(tert-butylamino)-3,4-dioxo-1-phenylbutan-2-yl)amino)-4-methyl-1-oxopentan-2-yl)-6-methylnicotinamide] | 30 to 80 |
| CC(C)C[C@H](NC(=O)c1cncc(F)c1)C(=O)NC(Cc1ccccc1)C(=O)C(=O)NC(C)(C)C (stereo partly drawn) [Example 31, N-((2S)-1-(4-(tert-butylamino)-3,4-dioxo-1-phenylbutan-2-ylamino)-4-methyl-1-oxopentan-2-yl)-5-fluoronicotinamide] | 1 to 15 |
| CC(C)C[C@H](NC(=O)c1ccc(C(F)(F)F)nc1)C(=O)NC(Cc1ccccc1)C(=O)C(=O)NC(C)(C)C (stereo partly drawn) [Example 32, N-((2S)-1-(4-(tert-butylamino)-3,4-dioxo-1-phenylbutan-2-ylamino)-4-methyl-1-oxopentan-2-yl)-6-(trifluoromethyl)nicotinamide] | 30 to 80 |
| CC(C)C[C@H](NC(=O)c1cnc2ccccc2c1)C(=O)NC(Cc1ccccc1)C(=O)C(=O)NC(C)(C)C (stereo partly drawn) [Example 54, Quinoline-3-carboxylic acid [(1S)-1-(1-benzyl-2-tert-butylcarbamoyl-2-oxo-ethylcarbamoyl)-3-methyl-butyl]-amide] | 30 to 80 |
| CC(C)C[C@H](NC(=O)c1cccnn1)C(=O)NC(Cc1ccccc1)C(=O)C(=O)NC(C)(C)C (stereo partly drawn) [Example 55, Pyridazine-3-carboxylic acid [(1S)-1-(1-benzyl-2-tert-butylcarbamoyl-2-oxo-ethylcarbamoyl)-3-methyl-butyl]-amide] | 15 to 30 |
| Cc1ccccc1C(=O)N[C@@H](CC(C)C)C(=O)NC(Cc1ccccc1)C(=O)C(=O)NC(C)(C)C (stereo partly drawn) [Example 56, N-[(1S)-1-(1-benzyl-2-tert-butylcarbamoyl-2-oxo-ethylcarbamoyl)-3-methyl-butyl]-2-methyl-benzamide] | 15 to 30 |
| CC(C)C[C@H](NC(=O)C1CCOCC1)C(=O)NC(Cc1ccccc1)C(=O)C(=O)NC(C)(C)C (stereo partly drawn) [Example 57, Tetrahydro-pyran-4-carboxylic acid [(1S)-1-(1-benzyl-2-tert-butylcarbamoyl-2-oxo-ethylcarbamoyl)-3-methyl-butyl]-amide] | 15 to 30 |
| CC(C)C[C@H](NC(=O)c1ccccc1)C(=O)NC(Cc1ccccc1)C(=O)C(=O)NC1CCCCC1 (stereo partly drawn) [Example 58, N-[(1S)-1-(1-benzyl-2-cyclohexylcarbamoyl-2-oxo-ethylcarbamoyl)-3-methyl-butyl]-benzamide] | 30 to 80 |
| CC(C)C[C@H](NC(=O)c1ccccc1)C(=O)NC(Cc1ccccc1)C(=O)C(=O)NCc1ccccc1 (stereo partly drawn) [Example 59, N-[(1S)-1-(1-benzyl-2-benzylcarbamoyl-2-oxo-ethylcarbamoyl)-3-methyl-butyl]-benzamide] | 30 to 80 |
| CC(C)C[C@H](NC(=O)c1cnccc1Cl)C(=O)NC(Cc1ccccc1)C(=O)C(=O)NC(C)(C)C (stereo partly drawn) [Example 60, N-[(1S)-1-(1-benzyl-2-tert-butylcarbamoyl-2-oxo-ethylcarbamoyl)-3-methyl-butyl]-4-chloro-nicotinamide] | 30 to 80 |
| CONC(=O)C(=O)C(Cc1ccccc1)NC(=O)[C@H](CC(C)C)NC(=O)c1cccc(OC)c1 (stereo partly drawn) [Example 61, N-[(1S)-1-(1-benzyl-2-methoxycarbamoyl-2-oxo-ethylcarbamoyl)-3-methyl-butyl]-3-methoxy-benzamide] | 30 to 80 |
| CONC(=O)C(=O)C(Cc1ccccc1)NC(=O)[C@H](CC(C)C)NC(=O)c1ccc2c(c1)OCO2 (stereo partly drawn) [Example 62, Benzo[1,3]dioxole-5-carboxylic acid [(1S)-1-(1-benzyl-2-methoxycarbamoyl-2-oxo-ethylcarbamoyl)-3-methyl-butyl]-amide] | 30 to 80 |
| CCNC(=O)C(=O)C(Cc1ccccc1)NC(=O)[C@H](CC(C)C)NC(=O)OC(C)(C)C (stereo partly drawn) [Example 64, tert-butyl (2S)-1-(4-(ethylamino)-3,4-dioxo-1-phenylbutan-2-ylamino)-4-methyl-1-oxopentan-2-ylcarbamate] | 30 to 80 |
| CCNC(=O)C(=O)C(Cc1ccccc1)NC(=O)[C@H](CC(C)C)NC(=O)NC(C)(C)C (stereo partly drawn) [Example 65, (2S)-2-(3-tert-butylureido)-N-(4-(ethylamino)-3,4-dioxo-1-phenylbutan-2-yl)-4-methylpentanamide] | 15 to 30 |
| COCCOC(=O)N[C@@H](CC(C)C)C(=O)NC(Cc1ccccc1)C(=O)C(=O)NOC (stereo partly drawn) [Example 67, [(1S)-1-(1-benzyl-2-methoxycarbamoyl-2-oxo-ethylcarbamoyl)-3-methyl-butyl]-carbamic acid 2-methoxy-ethyl ester] | 15 to 30 |
